Measurements reported in ChEMBL document CHEMBL1201862, “PubChem BioAssay data set” (2004).
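Where inhibition never reached the appropriate level, the endpoint shown equals the highest concentration tested. Otherwise, values were interpolated linearly from a five-concentration, 48-hour dose response in 96-well plates. GI50 marks 50% less growth.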 The source made the active and inactive calls. No stated cut-off is given here; in the data, active = GI50 up to about 1.1 µM and inactive = higher.

Key:
Test in all cases: growth of human tumour cells (NCI), 48 h
MOLT-4 = system: MOLT-4
RPMI-8226 = system: RPMI-8226
IGROV-1 = system: IGROV-1
CAKI-1 = system: CAKI-1
HCT-15 = system: HCT-15
SW-620 = system: SW-620
LOX IMVI = system: LOX IMVI
A498 = system: A498
HCT-116 = system: HCT-116
U-251 = system: U-251
DU-145 = system: DU-145
SF-295 = system: SF-295
BT-549 = system: BT-549
UACC-257 = system: UACC-257
Malme-3M = system: Malme-3M
Hs-578T = system: Hs-578T
SN12C = system: SN12C
SK-MEL-2 = system: SK-MEL-2
SK-OV-3 = system: SK-OV-3
SNB-19 = system: SNB-19

Row | SMILES | GI50 (MOLT-4) | GI50 (RPMI-8226) | GI50 (IGROV-1) | GI50 (CAKI-1) | GI50 (HCT-15) | GI50 (SW-620) | GI50 (LOX IMVI) | GI50 (A498) | GI50 (HCT-116) | GI50 (U-251) | GI50 (DU-145) | GI50 (SF-295) | GI50 (BT-549) | GI50 (UACC-257) | GI50 (Malme-3M) | GI50 (Hs-578T) | GI50 (SN12C) | GI50 (SK-MEL-2) | GI50 (SK-OV-3) | GI50 (SNB-19)
1 | CN(CCN(C)Cc1ccc(Cl)c(Cl)c1)CCN1CCCC1 | 9.33 µM (inactive) | 7.71 µM (inactive) | 15.8 µM (inactive) | 36 µM (inactive) | 37.2 µM | 24.3 µM (inactive) | 13.4 µM (inactive) | 16.1 µM (inactive) | 13.1 µM (inactive) | 21.3 µM (inactive) | 61.2 µM (inactive) | 26.1 µM (inactive) | 65.6 µM (inactive) | 9.16 µM (inactive) | 19.7 µM (inactive) | 9.04 µM (inactive) | > 48 µM (inactive) | 24.2 µM (inactive) | 71.9 µM (inactive) | > 49.3 µM (inactive)
2 | Cc1cc(S(=O)(=O)Nc2nc(Nc3ccc4ccccc4c3)n[nH]2)c(S)cc1Cl | > 100 µM (inactive) | > 100 µM (inactive) | 52.8 µM (inactive) | 52.8 µM (inactive) | 42.3 µM | 44.7 µM (inactive) | 45.6 µM (inactive) | 26.4 µM (inactive) | 41.5 µM (inactive) | 39.9 µM (inactive) | 54.3 µM (inactive) | 30.2 µM (inactive) | 75.9 µM (inactive) | 34.3 µM (inactive) | 89.7 µM (inactive) | 22.2 µM (inactive) | 48.2 µM (inactive) | 24 µM (inactive) | 46.2 µM (inactive) | 49.3 µM (inactive)
3 | O=C(NC1=C(Cl)C(=O)c2ccccc2C1=O)C(=O)c1c(O)c2ccccc2oc1=O | 4.65 µM (inactive) | 6.19 µM (inactive) | 3.27 µM (inactive) | 9.66 µM (inactive) | 3.18 µM | 5.22 µM (inactive) | 2 µM (inactive) | 14.7 µM (inactive) | 2.56 µM (inactive) | 5.74 µM (inactive) | 1.49 µM (inactive) | 2.46 µM (inactive) | 3.06 µM (inactive) | 1.51 µM (inactive) | 1.07 µM (active) | 5.2 µM (inactive) | 3.7 µM (inactive) | 2.32 µM (inactive) | 12.6 µM (inactive) | 4.6 µM (inactive)
4 | c1ccc(C/C(=N\Nc2nc3ccccc3o2)c2ccccn2)cc1 | < 0.01 µM (active) | 0.0482 µM (active) | 0.0643 µM (active) | 0.0879 µM (active) | 0.0252 µM | < 0.013 µM (active) | 0.185 µM (active) | 0.369 µM (active) | < 0.01 µM (active) | 0.198 µM (active) | 0.376 µM (active) | 0.234 µM (active) | 0.342 µM (active) | 0.0775 µM (active) | 0.0233 µM (active) | 0.569 µM (active) | 0.0569 µM (active) | 0.929 µM (active) | 0.0237 µM (active) | 0.2 µM (active)
5 | O=[N+]([O-])c1c(Br)cc(Br)c2c1Nc1c(ccc(Cl)c1Cl)S2 | 3.06 µM (inactive) | 14.4 µM (inactive) | 14.9 µM (inactive) | 16.5 µM (inactive) | 16.9 µM | 7.14 µM (inactive) | 2.34 µM (inactive) | 21.1 µM (inactive) | 6.37 µM (inactive) | 17.9 µM (inactive) | 14.1 µM (inactive) | 20.7 µM (inactive) | 2.88 µM (inactive) | 8.49 µM (inactive) | 13.4 µM (inactive) | 25.1 µM (inactive) | 13.8 µM (inactive) | 18.5 µM (inactive) | 19.6 µM (inactive) | 18.3 µM (inactive)
6 | CC(=O)N(C(C)=O)c1cc2c3c(c1)CCCN3CCC2 | > 10 µM (inactive) | > 10 µM (inactive) | > 10 µM (inactive) | > 10 µM (inactive) | > 10 µM | > 10 µM (inactive) | > 10 µM (inactive) | > 10 µM (inactive) | > 10 µM (inactive) | > 10 µM (inactive) | > 10 µM (inactive) | > 10 µM (inactive) | > 10 µM (inactive) | > 10 µM (inactive) | > 10 µM (inactive) | > 10 µM (inactive) | > 10 µM (inactive) | > 10 µM (inactive) | > 10 µM (inactive) | > 10 µM (inactive)
7 | CCOC(=O)C1=C(C)C(C(=O)OC)/C(=C/c2cccc3cccnc23)C1=O (centres undefined) | > 10 µM (inactive) | > 10 µM (inactive) | > 10 µM (inactive) | > 10 µM (inactive) | > 10 µM | > 10 µM (inactive) | > 10 µM (inactive) | > 10 µM (inactive) | > 10 µM (inactive) | > 10 µM (inactive) | > 10 µM (inactive) | > 10 µM (inactive) | > 10 µM (inactive) | > 10 µM (inactive) | > 10 µM (inactive) | > 10 µM (inactive) | > 10 µM (inactive) | > 10 µM (inactive) | > 10 µM (inactive) | > 10 µM (inactive)
8 | O=[N+]([O-])/C=C/c1cc2ccc3ccccc3c2[nH]1 | 0.776 µM (active) | 0.229 µM (active) | 0.527 µM (active) | 2.23 µM (inactive) | 1.72 µM | 1.49 µM (inactive) | 1.23 µM (inactive) | 1.23 µM (inactive) | 1.52 µM (inactive) | 1.34 µM (inactive) | 1.9 µM (inactive) | 2.4 µM (inactive) | 1.89 µM (inactive) | 2.24 µM (inactive) | 1.55 µM (inactive) | 3.56 µM (inactive) | 1.86 µM (inactive) | 0.796 µM (active) | 4.07 µM (inactive) | 2.66 µM (inactive)
9 | Cc1n[nH]c(=O)c2c3c([nH]c12)-c1ccccc1C3 | 39.9 µM (inactive) | > 100 µM (inactive) | 0.0716 µM (active) | > 100 µM (inactive) | > 100 µM | > 100 µM (inactive) | > 100 µM (inactive) | > 100 µM (inactive) | > 100 µM (inactive) | > 100 µM (inactive) | > 100 µM (inactive) | > 100 µM (inactive) | > 100 µM (inactive) | 19.5 µM (inactive) | > 100 µM (inactive) | > 100 µM (inactive) | > 100 µM (inactive) | > 100 µM (inactive) | > 100 µM (inactive) | > 100 µM (inactive)
10 | COC(=O)CCCC(=O)/C(=N\Nc1ccc(Cl)cc1)Nc1c(Cl)cccc1Cl | 26 µM (inactive) | 21.8 µM (inactive) | > 81.7 µM (inactive) | > 100 µM (inactive) | 72.3 µM | > 100 µM (inactive) | 64.1 µM (inactive) | 29.5 µM (inactive) | 38.9 µM (inactive) | 55.5 µM (inactive) | 52.4 µM (inactive) | 35.2 µM (inactive) | > 100 µM (inactive) | 59 µM (inactive) | 97.1 µM (inactive) | 42.8 µM (inactive) | > 100 µM (inactive) | 24.6 µM (inactive) | > 100 µM (inactive) | 35.7 µM (inactive)
11 | CCOC(=O)C[n+]1cccc(C2(c3cc4ccccc4[nH]3)OCCO2)c1 | > 100 µM (inactive) | > 100 µM (inactive) | > 100 µM (inactive) | > 100 µM (inactive) | > 100 µM | > 100 µM (inactive) | > 100 µM (inactive) | > 100 µM (inactive) | > 100 µM (inactive) | > 100 µM (inactive) | > 100 µM (inactive) | > 100 µM (inactive) | > 100 µM (inactive) | > 100 µM (inactive) | > 100 µM (inactive) | > 100 µM (inactive) | – | > 100 µM (inactive) | > 100 µM (inactive) | > 100 µM (inactive)
12 | OCC1OC(n2cnc3c(Cl)nc(Nc4ccccc4)nc32)CC1O (centres undefined) | 23.6 µM (inactive) | > 100 µM (inactive) | 25.4 µM (inactive) | 1.77 µM (inactive) | 20.8 µM | > 100 µM (inactive) | 19.2 µM (inactive) | 70 µM (inactive) | > 100 µM (inactive) | > 100 µM (inactive) | > 100 µM (inactive) | > 100 µM (inactive) | 35.6 µM (inactive) | 59.3 µM (inactive) | 18.7 µM (inactive) | 35.2 µM (inactive) | > 100 µM (inactive) | 45.7 µM (inactive) | > 100 µM (inactive) | > 100 µM (inactive)
13 | CCC1CCC2c3c([nH]c4ccc(C)cc34)C3C(=O)N(N(C)C)C(=O)C3C2C1 (centres undefined) | 14.5 µM (inactive) | 19 µM (inactive) | 5.11 µM (inactive) | > 34.4 µM (inactive) | 5.78 µM | 13.8 µM (inactive) | 13.7 µM (inactive) | > 100 µM (inactive) | 7.36 µM (inactive) | 19.5 µM (inactive) | 29.9 µM (inactive) | 5.11 µM (inactive) | 39.1 µM (inactive) | 5.64 µM (inactive) | 1.02 µM (active) | 4.91 µM (inactive) | 17.9 µM (inactive) | 24.6 µM (inactive) | > 100 µM (inactive) | 16.9 µM (inactive)
14 | CCOC(=O)C1(Cc2ccc(C)cc2)Cc2ccc(C)cc2C1=O (centres undefined) | 4.23 µM (inactive) | 12.2 µM (inactive) | 21.1 µM (inactive) | 19.5 µM (inactive) | 7.85 µM | 4.71 µM (inactive) | 12.4 µM (inactive) | 23.5 µM (inactive) | 6.73 µM (inactive) | 10 µM (inactive) | 41.4 µM (inactive) | 15.4 µM (inactive) | 10 µM (inactive) | 18.9 µM (inactive) | 16.4 µM (inactive) | 16.3 µM (inactive) | 14.9 µM (inactive) | 14.6 µM (inactive) | 24.4 µM (inactive) | 36.6 µM (inactive)
